One data set concerns DENV-2. Kind of data set: DENV-2 replication in infected MK2 cells, viral RNA by real-time PCR. As to conditions: inferred from lower inhibition percentage of low concentrations at 48 and 72 hrs versus 24 hrs. In kind it is cell-based, Dengue virus serotype 2. As for the experimental part:
The MK2 cell lines were grown in a 24-well tissue culture plate (1 × 10^5 cells/well), incubated 24 hrs under optimal conditions (37°C and 5% CO2). DENV-2 was added to the wells (MOI of 2) followed by incubation for 1 hr with gentle shaking every 10 min for optimal virus to cell contact. The virus supernatant was removed, and the cells were washed twice with fresh serum free DMEM media to remove residual virus. New complete DMEM media containing 2.5, 7.5 and 12.5 μM of PG-1 were added and the cultures were incubated for 24, 48 and 72 hrs. Afterwards, cellular supernatants were collected and stored at −80°C for viral quantification by real-time PCR.
For quantification of DENV-2 copies, the standard curve was generated by 10-fold serial dilution of known copies of DENV-2 RNA. Viral RNA was extracted from culture supernatant using QIAmp viral RNA minikit (QIAGEN, Germany) according to the manufacturer's instructions. A fragment located at the 5′UTR region of the virus genome was used to generate the primers. One-step RT-PCR using SyBr Green Master Kit (Qiagen, Germany) was used to conduct absolute quantification using ABI7300 machine from Applied Biosystems (Foster City, CA). […] Results were analyzed using Sequence Detection Software Version 1.3 (Applied Biosystems, Foster City, CA, USA).
(In qPCR the cycle at which signal appears reflects the starting amount.)

In a further data set the target is dengue NS2B-NS3pro (Dengue virus type 2, UniProt P14340). Kind of data set: Dengue NS2B-NS3pro protease inhibition assay (fluorogenic substrate Boc-Gly-Arg-Arg-MCA). In kind it is biochemical, DENV-2. As for the experimental part: The bioassay used in this study was modified from the method published by Kiat and coworkers. Reaction mixtures with total volume of 200 μL were prepared. These reaction mixtures consisted of 100 μM fluorogenic peptide substrate (Boc-Gly-Arg-Arg-MCA), 2 μM NS2B-NS3pro complex, with or without PG-1 of varying concentrations, buffered at pH 8.5 with 200 mM Tris-HCl. The PG-1 was initially prepared in Tris-HCl buffer and assayed at five different concentrations. The reaction mixtures without fluorogenic peptide substrate were firstly incubated at 37°Cfor 30 minutes. Subsequently, the substrate was added and the mixture was further incubated at the same temperature for 30 minutes. Triplicates were performed for all measurements and the readings were taken using Tecan Infinite M200 Pro fluorescence spectrophotometer. Substrate cleavage was optimized at the emission at 440 nm upon excitation at 350 nm. The readings were then used for calculating Km values of peptide substrate and IC50 values of peptide inhibitors using nonlinear regression models in GraphPad Prism 5.01 software.

Data on one compound can be found in publication PMC3470887, “Protegrin-1 Inhibits Dengue NS2B-NS3 Serine Protease and Viral Replication in MK2 Cells” (Journal of Biomedicine and Biotechnology, 2012).

Chain of dengue NS2B-NS3pro (P14340 1394-1440 limits assumed): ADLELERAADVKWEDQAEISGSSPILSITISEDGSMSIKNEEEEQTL
Chain of dengue NS2B-NS3pro (P14340 1476-1660 limits assumed): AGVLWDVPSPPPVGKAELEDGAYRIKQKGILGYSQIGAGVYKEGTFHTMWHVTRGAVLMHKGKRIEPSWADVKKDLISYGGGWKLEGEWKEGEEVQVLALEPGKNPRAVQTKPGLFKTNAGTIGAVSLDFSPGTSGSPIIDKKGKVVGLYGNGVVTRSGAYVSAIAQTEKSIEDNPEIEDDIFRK

By IC50 is commonly meant the midpoint of a concentration-inhibition curve. By inhibition is commonly meant how much of the control response was suppressed. Low values mean a response near the control, high ones a response far below the control. By Ki is commonly meant a measure of affinity in units of concentration, obtained from inhibition or displacement. With `CC(C)C[C@H](NC(=O)[C@H](CCCNC(=N)N)NC(=O)CNC(=O)CNC(=O)[C@@H](N)CCCNC(=N)N)C(=O)N[C@H]1CSSC[C@@H](C(=O)N[C@H](C(=O)NCC(=O)N[C@@H](CCCNC(=N)N)C(N)=O)C(C)C)NC(=O)[C@H](C(C)C)NC(=O)[C@@H]2CSSC[C@H](NC(=O)[C@H](Cc3ccc(O)cc3)NC1=O)C(=O)N[C@@H](CCCNC(=N)N)C(=O)N[C@@H](CCCNC(=N)N)C(=O)N[C@@H](CCCNC(=N)N)C(=O)N[C@@H](Cc1ccccc1)C(=O)N2` [PG-1], the “PG-1 stability in culture media” value in the data set on DENV-2 is “declined with longer incubation in culture media”. For the same compound, the IC50 at dengue NS2B-NS3pro (2 μM NS2B-NS3pro, 100 μM Boc-Gly-Arg-Arg-MCA, 200 mM Tris-HCl pH 8.5, 37°C, 30 min pre-incubation + 30 min, triplicates, nonlinear regression GraphPad Prism) came out at 11.7 µM. Further, the inhibition at 40 µM against dengue NS2B-NS3pro (PG-1 at 40 μM, assayed at five concentrations, 10–160 μM) amounted to 95.7%. Also, the Ki at dengue NS2B-NS3pro (kinetic assay, PG-1 0, 2.5, 5, 10 and 20 μM, Michaelis-Menten nonlinear regression, GraphPad Prism, read-out: Ki (inhibition constant)) came to 5.85 µM.
